In patent publication EP0095833A2 (priority 1982, dated 1983):
Where two headings read alike, the source gives them in different places.

Tests used:
[1] = test system: VSV
[2] = test system: VSV; assay type: cell-based; conditions: for Titer obtained (PFU/ml): pretreated for 2 hours, one-step growth (18 hours)
[3] = test system: VSV; assay type: cell-based; conditions: 20 mM
[4] = test system: Vaccinia virus; assay type: cell-based
[5] = test system: Reovirus III; assay type: cell-based
[6] = test system: Polio virus; assay type: cell-based
[7] = test system: VSV; assay type: cell-based; conditions: HeLa cells, Figure 2
[8] = test system: VSV; assay type: cell-based
[9] = test system: VSV; assay type: cell-based; remark: listed apart in the source
[10] = test system: Sindbis virus; conditions: BHK-21 cells; 0.1 mM chloroquine or 10 µg of cytochalasin B for thirty minutes before infection; Sindbis virus 5,000 PFU; 30 or 60 minutes at room temperature; cited from earlier work
[11] = test system: vesicular stomatitis virus; conditions: cited from earlier work
[12] = 20 mM, added from 2 hours before inoculation
[13] = 20 mM NH4Cl from the second hour before infection to the eighteenth hour after, Figure 7 panel A
[14] = 20 mM NH4Cl from the second hour before inoculation to the seventh hour after, Figure 5 panel A

Which virucidal effect ([1]; procedure of Example III, at these concentrations (70 µM and 100 µM)) does the source give for `Cc1cc2nc3ccc(N(C)C)cc3nc2cc1N.Cl` [Neutral Red] here?
The virucidal effect was “no virucidal effect”.

And the “Titer obtained (PFU/ml)” value ([2]; 70 µM Neutral Red)?
Its value is 9.0 x 10^7 PFU/ml.

And the “growth of VSV” value ([2]; 100 µM (29 µg/ml))?
Its value is “completely inhibits”.

And the “Titer obtained (PFU/ml)” value ([2]; 100 µM Neutral Red)?
Its value is 0 PFU/ml.

With `Cl.N` [NH4Cl, ammonium chloride] as the compound, how does the “development of VSV” value ([3]; added from 2 hours before inoculation) read?
Its value is “completely inhibits”.

And the “development of VSV, compared with Table I” value ([3]; in L, BHK, and BGM cells)?
The value was “Identical results”.

And the “viral development of Vaccinia” value [4, 12]?
Its value is “No action”.

And the “Virions produced in infected 20mM NH4Cl* treated cells” value ([4]; L cells, Vaccinia virus, 20 mM NH4Cl from 2 hours before inoculation, end of one step growth)?
The value was 3.5 x 10^6PFU/ml.

And the “development of Reovirus” value [5]?
Its value is “completely inhibits”.

And the “development of Reovirus III, compared with Table I” value ([5]; 20 mM)?
The value was “Identical results”.

And the “viral development of Polio virus” value [6, 12]?
The value was “No action”.

What about the “Virions produced in infected 20mM NH4Cl* treated cells” value ([6]; BGM cells, Polio virus, 20 mM NH4Cl from 2 hours before inoculation, end of one step growth) of the same compound?
Its value is 4.15 x 10^8PFU/ml.

And the “virucidal effect against VSV” value ([1]; 20 mM NH4Cl in PBS, incubated at 37°C, titrated at various times)?
The value was “no virucidal effect”.

What about the “lag period before rather normal viral RNA synthesis” value ([7]; 20 mM NH4Cl from 2 hours before inoculation, withdrawal at the sixth hour after inoculation) of the same compound?
Its value is 6 h.

What about the “viral RNA synthesis” value ([7]; 20 mM NH4Cl from 2 hours before to 18 hours after inoculation) of the same compound?
The value was “seriously reduced”.

What about the “viral RNA synthesis” value ([7]; 20 mM NH4Cl only added after inoculation, until 18 hours) of the same compound?
Its value is “strongly reduced”.

What about the “viral cores and virions in supernatant” value ([8]; treated from the second hour before inoculation to the eighteenth hour after, Figure 3 panel B) of the same compound?
Its value is “neither viral cores nor virions”.

And the virions in supernatant ([8]; treated from the second hour before to the sixth hour after inoculation, 18 hours, versus untreated, Figure 3 panel A)?
The virions in supernatant was “lower amount”.

And the “viral cores in supernatant” value ([8]; treated immediately after inoculation, 18 hours, versus untreated, Figure 3 panel B)?
The value was “lower level”.

And the “infection (viral m RNAs and 42S mature RNA in cytoplasmic extracts)” value ([9]; 20 mM NH4Cl from immediately after inoculation to the eighteenth hour after, Figure 7 panel B)?
Its value is “slight reduction”.

What about the “42S viral RNA in cytoplasmic extracts” value [9, 13] of the same compound?
The value was “do not contain”.

What about the “viral m RNAs in cytoplasmic extracts” value [9, 13] of the same compound?
Its value is “do not contain”.

And the “amount of 42S mature viral RNA in cytoplasmic extracts” value ([9]; 20 mM NH4Cl from the second hour before infection to the sixth hour after, 18 hours after infection, Figure 6 panel B)?
Its value is “lower than in untreated cells”.

And the “viral m RNAs (31S, 17S, 14.5S, 12S) in cytoplasmic extracts” value ([9]; 20 mM NH4Cl from the second hour before infection to the sixth hour after, 18 hours after infection, versus untreated, Figure 6 panel B)?
Its value is “more”.

What about the “complete virus (625S) in cytoplasmic extract” value [9, 14] of the same compound?
Its value is “large amount”.

And the “viral cores (120s) in cytoplasmic extract” value [9, 14]?
The value was “negligible amount”.

Which “internalization by endocytosis of the virus” value [10] does the source give for `CCN(CC)CCCC(C)Nc1ccnc2cc(Cl)ccc12` (centres unmarked) [chloroquine] here?
The value was “either enhanced or took place normally”.

Which “internalization by endocytosis of the virus” value [10] does the source give for `C=C1[C@@H](C)[C@H]2[C@H](Cc3ccccc3)NC(=O)[C@]23OC(=O)/C=C/[C@H](O)CCC[C@@H](C)C/C=C/[C@H]3[C@@H]1O` [cytochalasin B] here?
Its value is “blocked”.

And the “yields of VSV” value [11]?
Its value is “the same as untreated (control) cells”.
